Experimental findings from EP4023291A1, “FAT METABOLISM PROMOTER” (Asahi Group Holdings, Ltd., priority 2019, dated 2021) are described below.

The test system of one assay is 3T3-L1 cells. Description: Test 4: lipolysis test, glycerol released into culture supernatant of differentiated adipocytes. The assay is classed as cell-based, Mouse. The following applies: for amount of released glycerol, comparison with control: against Comparative Example 4 (0.1% ethanol), one-way ANOVA, Dunnett's test; for control ratio: amount of glycerol relative to medium of Comparative Example 4, Average: culture 2 days, 0.1% ethanol, 0.1 µM noradrenaline, ethyl caproate 0/0.1/1/10 ppm in Comparative Example 5/Examples 6/7/8. The method, then: In the present test, the lipolysis-promoting effect of the promoter of the present embodiment was tested by quantifying glycerol released into culture supernatant through decomposition of fat accumulated in adipocytes. Mouse embryonic 3T3-L1 cells, which are progenitor cells of adipocytes and were used in the present test, were induced to differentiate to form adipocytes. The present test was carried out in accordance with a method described in "Effects of Quercetin Glucosides on Dietinduced Obesity in Mice - The Lipolytic Activity of Quercetin -" (Tateishi et al., Japanese Pharmacology & Therapeutics 2009; 37(2): 123-131). The specific testing method of the present test and the results of the test are shown in the following.
In the present test, first, 3T3-L1 cells were suspended in Dulbecco's Modified Eagle medium (manufactured by FUJIFILM Wako Pure Chemical Corporation) (hereinafter, also referred to as "DMEM medium") to which penicillin-streptomycin (manufactured by Thermo Fisher Scientific, Inc.) and fetal bovine serum (manufactured by Sigma-Aldrich Co. LLC) had been added to reach concentrations of 100 Unit/mL, 100 µg/mL, and 10%, respectively, and seeded in a 12-well plate.
The 3T3-L1 cells were cultured under conditions of 5% CO2 and 37°C until the cells became confluent (a state in which cells are totally covering the surface of a culture vessel). Two days after becoming confluent, the medium was exchanged with a medium obtained by adding dexamethasone (manufactured by NACALAI TESQUE, INC.), 3-isobutyl-1-methylxanthine (manufactured by NACALAI TESQUE, INC.), and insulin (manufactured by NACALAI TESQUE, INC.) to DMEM medium to reach concentrations of 0.25 µM, 0.5 mM, and 10 µg/mL, respectively. Thereafter, the 3T3-L1 cells were cultured at 5% CO2 and 37°C for 2 days to induce the cells to differentiate into adipocytes.
After the induction of differentiation, medium exchange with a medium obtained by adding insulin to DMEM medium to reach a concentration of 5 µg/mL was performed every 2 or 3 days, and differentiation was maintained by culturing at 5% CO2 and 37°C for 12 days in total. Thereafter, a medium is prepared as a test medium by adding penicillin-streptomycin (manufactured by Thermo Fisher Scientific, Inc.) and fetal bovine serum (manufactured by Sigma-Aldrich Co. LLC) to DMEM medium free of phenol red (1.0 g/L glucose) (manufactured by NACALAI TESQUE, INC.) to reach concentrations of 100 Unit/mL, 100 µg/mL, and 10%, respectively, and components shown in Table 4 were added to the test medium to reach concentrations shown in Table 4. The medium for the 3T3-L1 cells after induction of differentiation was exchanged with a medium to which components of any of Comparative Examples 4, 5 or Examples 6 to 8 had been added, and the 3T3-L1 cells were cultured at 5% CO2 and 37°C for 2 days.
Ethyl caproate manufactured by Tokyo Chemical Industry Co., Ltd. was used for the ethyl caproate, ethanol manufactured by FUJIFILM Wako Pure Chemical Corporation was used for the ethanol, and noradrenaline manufactured by NACALAI TESQUE, INC. was used for the noradrenaline.
After culturing for 2 days, the culture supernatant was collected, and glycerol released into the culture supernatant was quantified with a Glycerol Assay kit (Cell-Based) (manufactured by Abcam). The ratio of the amount of glycerol in each medium to which the components of any of Comparative Example 5 and Examples 6 to 8 had been added relative to the amount of glycerol in the medium to which the component of Comparative Example 4 had been added (hereinafter, referred to as "control ratio") was determined to obtain the average ± standard error.
In the present test, statistical test was carried out by multiple comparison test with one-way analysis of variance (one-way ANOVA) followed by Dunnett's test. Significance levels of p < 0.05 were each determined to be a significant difference. These analyses were all performed with SPSS version 23 (manufactured by SPSS).

Assay [1] relates to HEK293T cells without transfer of the TRPA1 gene. Nature of the assay: Test 5: TRPA1 activity test, reference in non-transformed cells. The class given is cell-based, human. The following applies: ethyl caproate 255 ppm test solution, 100 ppm in well. As to the method:
In the present test, first, human embryonic HEK293T cells were first suspended in DMEM medium to which penicillin-streptomycin (manufactured by Thermo Fisher Scientific, Inc.) and fetal bovine serum (manufactured by Sigma-Aldrich Co. LLC) were added to reach concentrations of 100 Unit/mL, 100 µg/mL, and 10%, respectively, seeded in a 96-well plate at a volume of 100 µL/well, and cultured under conditions of 5% CO2 and 37°C until a cell density reached 70 to 90%.
(§1) Ethyl caproate was added to HEPES buffer (10 mM HEPES, 130 mM NaCl, 5 mM KCl, 10 mM glucose, 2 mM CaCl2·2H2O, 1.2 mM MgCl2·6H2O, pH = 7.40), and thus a test solution of Example 9 containing ethyl caproate in a concentration of 255 ppm was obtained. […] Measurement of fluorescence intensity for the cells with forced expression of TRPA1 was initiated, and, 20 seconds thereafter, 50-µL portions of each of the test solutions prepared were added to three wells. After the lapse of a predetermined period of time, the measurement of fluorescence intensity was completed, and ratios of fluorescence intensity at each time after addition of a test solution as the average of fluorescence intensity before addition of a test solution was assumed as 1 (hereinafter, also referred to as "RFU (relative fluorescence units)") were determined from measurements of fluorescence intensity. […]

A further assay concerns the target T1, TRPA1 (Homo sapiens, UniProt O75762).
T1 construct: expressed in transfected cells; host or cells: HEK293T cells, transient transfection with Lipofectamine 2000
Nature of the assay: Test 5: TRPA1 activity test, calcium imaging in cells with forced expression of TRPA1. The assay is classed as cell-based. As to the method:
In the present test, the contribution of the lipid metabolism promoter of the present embodiment to TRPA1 activity was examined by checking the activation of the temperature-sensitive ion channel TRPA1 with a calcium imaging method. The specific testing method of the present test and the results of the test are shown in the following. […]
as §1, with “intensity. Further, change rates in RFU before and after addition of a test solution (hereinafter, also referred to as "ΔRFU") were determined at each time after addition of a test solution.” for “intensity.”

T1 sequence (O75762 whole entry): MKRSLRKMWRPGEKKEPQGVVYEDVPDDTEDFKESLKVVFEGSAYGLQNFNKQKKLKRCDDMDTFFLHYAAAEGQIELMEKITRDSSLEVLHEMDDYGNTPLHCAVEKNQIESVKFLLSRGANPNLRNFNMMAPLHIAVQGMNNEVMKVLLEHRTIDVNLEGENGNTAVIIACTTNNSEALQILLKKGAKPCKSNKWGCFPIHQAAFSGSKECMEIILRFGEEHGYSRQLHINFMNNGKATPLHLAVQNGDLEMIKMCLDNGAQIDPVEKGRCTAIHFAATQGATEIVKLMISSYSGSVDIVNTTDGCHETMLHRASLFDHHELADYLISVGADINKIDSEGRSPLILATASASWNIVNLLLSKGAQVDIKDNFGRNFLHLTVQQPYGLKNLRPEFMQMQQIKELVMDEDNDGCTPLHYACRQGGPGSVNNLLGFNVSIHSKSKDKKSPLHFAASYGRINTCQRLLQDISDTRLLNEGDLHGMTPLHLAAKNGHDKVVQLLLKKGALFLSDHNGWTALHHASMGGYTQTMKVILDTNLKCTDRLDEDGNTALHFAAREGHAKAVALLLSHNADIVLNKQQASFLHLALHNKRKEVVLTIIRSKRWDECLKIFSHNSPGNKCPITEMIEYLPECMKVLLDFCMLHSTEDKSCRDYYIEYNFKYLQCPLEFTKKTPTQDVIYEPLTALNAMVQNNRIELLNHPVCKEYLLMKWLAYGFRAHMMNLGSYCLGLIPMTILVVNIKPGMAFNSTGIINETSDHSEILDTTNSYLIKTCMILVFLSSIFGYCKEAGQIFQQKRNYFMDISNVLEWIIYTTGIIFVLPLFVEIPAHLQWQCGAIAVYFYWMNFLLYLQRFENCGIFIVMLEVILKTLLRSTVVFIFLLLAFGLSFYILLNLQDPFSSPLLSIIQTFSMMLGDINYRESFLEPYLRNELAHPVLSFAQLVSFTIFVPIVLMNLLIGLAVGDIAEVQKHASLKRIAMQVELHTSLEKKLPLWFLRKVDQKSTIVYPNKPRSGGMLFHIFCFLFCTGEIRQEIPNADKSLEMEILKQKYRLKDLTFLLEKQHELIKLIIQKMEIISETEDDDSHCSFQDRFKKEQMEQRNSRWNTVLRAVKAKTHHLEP

For `NC[C@H](O)c1ccc(O)c(O)c1` [Comparative Example 5, Noradrenaline, reference compound], in the assay with 3T3-L1 cells, the “amount of released glycerol, comparison with control” value (from here on “amount of released glycerol”) is given as “almost no difference in the amount of released glycerol” and the “control ratio: amount of glycerol relative to medium of Comparative Example 4, Average” value came to 1.002.

As for `CCCCCC(=O)OCC` [Example 6, Ethyl caproate], the “control ratio: amount of glycerol relative to medium of Comparative Example 4, Average” value in the assay on 3T3-L1 cells came to 1.063.

Take `CCCCCC(=O)OCC` [Example 7, Ethyl caproate]: in the assay on 3T3-L1 cells, the “amount of released glycerol” value is “increasing tendency in the amount of released glycerol” and the “control ratio: amount of glycerol relative to medium of Comparative Example 4, Average” value is reported as 1.089.

For the compound `CCCCCC(=O)OCC` [Example 8, Ethyl caproate], in the assay on 3T3-L1 cells, the “amount of released glycerol” value is “significant increase in the amount of released glycerol” and the “control ratio: amount of glycerol relative to medium of Comparative Example 4, Average” value is 1.118.

Consider `CCCCCC(=O)OCC` [Example 9, Ethyl caproate], for which the “maximum value of ΔRFU after addition of test solution, Average” value in assay [1] came out at 0.046. Further, on TRPA1 (cells with forced expression of TRPA1, Figure 11), the “cellular response after co-addition of the TRPA1 inhibitor HC03001” value is recorded as “disappeared”. The “cellular response of cells with forced expression of TRPA1” value on TRPA1 (ethyl caproate 100 ppm in well, Figures 9 and 10) was “evoked cellular response”.
